Experimental findings from patent US20240307361A1, “METHOD FOR DIAGNOSING AND TREATING IRRITABLE BOWEL SYNDROME” (Centre for Chinese Herbal Medicine Drug Development Limited, priority 2023, published 2024) are described below.

One series deals with mouse intestinal tissues. As to the kind of experiment: 5-HT production in mouse intestinal tissues cultured ex vivo. The settings on record: 25 μM and 50 μM, p<0.05, FIG. 4A-B. Type of series: cell-based. Here is the method: (§1) Mouse and human colonic tissues were collected as previously described. To investigate the effects of phenethylamine on 5-HT levels in mouse and human colon tissues, the colonic tissues were cut into small pieces (0.5 cm) and placed in a 12-well cell culture plate. Colon pieces were added to DMEM/F12 medium containing 5% fetal bovine serum, penicillin-streptomycin (1×), and gentamycin (20 μg/ml), followed by treatment with phenethylamine and EPPTB, as indicated. Colon pieces were incubated at 37° C. with 5% CO2 and 95% air. A 200 μL volume of medium was collected from each well at the indicated time points for the analysis of 5-HT.
(§2) An Agilent 1290 Infinity II UPLC system coupled to a triple quadrupole (QQQ) 6470 mass spectrometer was used for targeted metabolomics profiling. A Waters BEH 2.1×50 mm C18 1.7 μm column with a pre-column was used. The mobile phase used in LC-MS-QQQ was solution A (water with 0.1% formic acid) and solution B (acetonitrile with 0.1% formic acid). The gradients were set as 2% B (0-0.5 min), 2%-30% B (0.5-4 min), […] B (4-6 min), 100% B (6-8 min), 100%-2% B (8-8.1 min) and maintain in 2% B (8.1-10 min). The MS data were collected and processed using Agilent software. The standard list, MRM transition, fragmentor, and collision energy are listed in (Table 3).

For another series, the system named is human colonic tissues. As to the kind of experiment: 5-HT production in human colonic tissues cultured ex vivo. It counts as cell-based. The conditions noted are these: 50 μM, p<0.05, FIG. 10A. The protocol:
as §1, §2

In another series the test system is 5-HT production. As to the kind of experiment: Oral phenethylamine/tryptamine administration in mice: 5-HT levels, GI transit, fecal water content. It counts as in vivo, mouse. The settings on record: for GI transit / fecal water content / serum and intestinal 5-HT levels: mice, oral administration, 2, 5 and 10 mg/kg, p<0.01. The protocol: as §2
(§3) To study phenethylamine and tryptamine effects on 5-HT production, phenethylamine and tryptamine at a dosage of 2 mg/kg, 5 mg/kg and 10 mg/kg (dissolved in 0.5% CMC-Na, sodium carboxymethyl cellulose) were administered to mice by oral gavage. Mice treated with/without phenethylamine and tryptamine were sacrificed under isoflurane anesthesia. Biological samples including serum, duodenum, ileum, proximal colon and distal colon tissues and luminal contents in each intestinal segments were collected at indicated dosages and times and stored at −80° C. until analysis.
(§4) For the fecal pellet water content test, 1.5 mL Eppendorf tubes were pre-weighed and used to collect fecal pellets from mice immediately after defecation. The tubes were then closed to measure wet weight. Afterward, the tubes were opened and placed in an oven at 60° C. overnight to measure the dry weight. Fecal pellet water content was measured by subtracting the dry weight from the wet weight and normalizing it to the wet pellet mass. Fecal pellets from mice were also counted within 2 h of the defecation frequency test.
(§5) Carmine red assay: Mice were administered 300 μL of 6% carmine red solution (prepared by 0.5% methylcellulose) by oral gavage to measure the GI transit time after treatment with phenethylamine at the indicated dosages. The mice were placed on white sheet paper to track the red pellet in their cages after oral gavage. The total time taken for the appearance of the first red pellet after oral gavage was recorded as gut transit time.

For another series, the system named is QGP-1 cells. As to the kind of experiment: 5-HT production in QGP-1 cells. It counts as cell-based, human. The conditions noted are these: 25-200 μM, 24 hours, FIG. 10D-E. Here is the method: (§6) QGP-1 cells were cultured in RPMI 1640 medium supplemented with 10% fetal bovine serum (FBS). QGP-1 is a human pancreatic endocrine cell line that produces 5-HT. To evaluate the effects of phenylalanine, phenethylamine, and phenylacetic acid on 5-HT production, QGP-1 cells were treated with or without phenylalanine, phenethylamine, and phenylacetic acid at the indicated concentrations and times.
as §2

A short description of series [1]: Phenethylamine level in intestinal tissues and luminal content after oral gavage. The settings on record: for concentration at 0 min / concentration at 15 min / concentration at 30 min: mouse, oral. It counts as in vivo, mouse. Here is the method: as §2, §3
The target in the next series is T1, TAAR1 (Mus musculus, UniProt Q923Y8).
T1 construct: is expressed in EC cells in the GI tract; from tissue; host or cells: living mice (conventional, antibiotic-treated, or wild-type littermates of Taar1 KO, C57Bl/6J)
As to the kind of experiment: Phenethylamine in Taar1-/- mice and wild-type littermates. The conditions noted are these: Taar1-/- mice vs wild-type littermates, phenethylamine 10 mg/kg, p<0.05. It counts as in vivo. The protocol: as §4, §5
Taar1 (NM_053205) knockout mouse model (C57Bl/6J) was generated by CRISPR/Cas-mediated genome engineering. All the Taar1 KO mice and their wildtype littermates were genotyped using PCR and Southern blot [F1: […] (SEQ ID NO:3), R1: […] (SEQ ID NO:4), R2: […] (SEQ ID NO:5)]. The product size of F1 and R1 is 989 bp while the product size of F1 and R2 is 625 bp. […]

The next series has as its system PKA and CaMKII. As to the kind of experiment: Western blot of PKA and CaMKII phosphorylation in colonic tissues of phenethylamine-treated mice. Type of series: in vivo, mouse. The settings on record: colonic tissues of mice, 2, 5 and 10 mg/kg, p<0.05. The protocol:
as §3
Colonic tissues were lysed in RIPA buffer containing protease inhibitor cocktails in a tissuelyzer. The tissue lysates were centrifuged at 15,000 rpm for 15 min at 4° C. and quantified by BCA kit for protein concentration. The protein content normalized supernatant was mixed with 5× loading buffer and heated at 98° C. in a dry bath for 10 min. The samples were evaluated according to the western blotting protocol (Abcam). The blots were incubated with HRP-conjugated anti-rabbit IgG or anti-mouse IgG and reacted with enhanced chemiluminescence.
(In general: In western blotting, separated proteins are transferred to a membrane and probed.)

The target of another series is T2, 5-HTR4 (Homo sapiens, UniProt Q13639).
T2 construct: endogenous in cells; host or cells: QGP-1
The experiment in a line: 5-HTR4 antagonist Piboserod on phenethylamine/tryptamine-stimulated 5-HT in QGP-1 cells. Type of series: cell-based. The conditions noted are these: 24 hours, FIG. 11M. Here is the method:
as §6

Setting [2] is: serum of phenethylamine-treated mice, FIG. 5A.

T2 sequence (Q13639 whole entry): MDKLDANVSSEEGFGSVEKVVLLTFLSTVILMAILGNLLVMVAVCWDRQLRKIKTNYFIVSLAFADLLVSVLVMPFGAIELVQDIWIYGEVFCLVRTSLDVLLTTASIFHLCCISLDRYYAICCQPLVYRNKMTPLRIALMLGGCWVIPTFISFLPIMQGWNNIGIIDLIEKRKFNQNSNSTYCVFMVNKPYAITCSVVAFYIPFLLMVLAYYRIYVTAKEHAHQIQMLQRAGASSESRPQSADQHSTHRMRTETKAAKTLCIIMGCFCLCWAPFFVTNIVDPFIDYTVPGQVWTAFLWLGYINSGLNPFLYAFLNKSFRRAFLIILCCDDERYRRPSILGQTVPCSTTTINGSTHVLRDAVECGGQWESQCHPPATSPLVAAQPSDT
T1 sequence (Q923Y8 whole entry): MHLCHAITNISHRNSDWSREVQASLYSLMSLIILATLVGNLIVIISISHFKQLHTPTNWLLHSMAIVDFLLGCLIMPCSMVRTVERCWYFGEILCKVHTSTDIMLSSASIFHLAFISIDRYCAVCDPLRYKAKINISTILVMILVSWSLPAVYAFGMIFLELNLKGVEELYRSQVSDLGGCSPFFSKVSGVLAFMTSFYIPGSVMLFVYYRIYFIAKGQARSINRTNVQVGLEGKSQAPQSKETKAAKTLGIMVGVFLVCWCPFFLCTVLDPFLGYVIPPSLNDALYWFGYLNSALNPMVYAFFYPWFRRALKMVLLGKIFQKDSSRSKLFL

Take `NCCc1c[nH]c2ccccc12` [tryptamine]: the “5-HT production in mouse intestinal tissues” value in the series on mouse intestinal tissues is “significantly enhanced 5-HT production”. The “5-HT production in human colonic tissues” value in the series on human colonic tissues is on record as “significantly enhanced 5-HT production”. Also, in the series with 5-HT production, the GI transit result is “accelerated GI transit”; the fecal water content result was “increased fecal water content”; the “serum and intestinal 5-HT levels” value was “significantly elevated serum and intestinal 5-HT levels”.

As to `N[C@@H](Cc1c[nH]c2ccccc12)C(=O)O` [tryptophan], in the series with QGP-1 cells, the “5-HT levels in QGP-1 cells (precursors and metabolites)” value (shortened to “5-HT levels in QGP-1 cells”) was “did not change the 5-HT levels”.

With `N[C@@H](Cc1ccccc1)C(=O)O` [phenylalanine], the “5-HT levels in QGP-1 cells” value in the series with QGP-1 cells is recorded as “did not change the 5-HT levels”.

As for indole acetic acid, the “5-HT levels in QGP-1 cells” value in the series on QGP-1 cells is given as “did not change the 5-HT levels”.

In the case of `NCCc1ccccc1` [phenethylamine], the “5-HT production in mouse intestinal tissues” value in the series with mouse intestinal tissues was “significantly enhanced 5-HT production”. In addition, the “Phenethylamine level, Concentration” value was determined as 1082 µg/g in series [1] (Duodenum, 15 min); 1245 µg/g in series [1] (Luminal content in duodenum, 15 min); 1200 µg/g in series [1] (Luminal content in duodenum, 30 min). Besides, the concentration at 0 min came out at 3000 ng/g in series [1] (luminal content of duodenum, Luminal content in duodenum); 1670 ng/g in series [1] (luminal content of ileum, Luminal content in ileum); 3700 ng/g in series [1] (luminal content of proximal colon, Luminal content in proximal colon); 230 ng/g in series [1] (Duodenum); 240 ng/g in series [1] (Ileum); 12000 ng/g in series [1] (Proximal colon). Besides, the concentration at 15 min in series [1] (luminal content of ileum, Luminal content in ileum, 15 min) amounted to 29700 ng/g; in series [1] (luminal content of proximal colon, Luminal content in proximal colon, 15 min), 112000 ng/g; in series [1] (Ileum, 15 min), 24000 ng/g; in series [1] (Proximal colon, 15 min), 116000 ng/g. The concentration at 30 min in series [1] (luminal content of ileum, Luminal content in ileum, 30 min) amounted to 9300 ng/g; in series [1] (luminal content of proximal colon, Luminal content in proximal colon, 30 min), 58900 ng/g; in series [1] (Duodenum, 30 min) it was 879000 ng/g; in series [1] (Ileum, 30 min) it was 8000 ng/g; in series [1] (Proximal colon, 30 min) it was 38000 ng/g. Further, the “phenethylamine-induced changes in 5-HT production, GI transit and secretion under genetic ablation of TAAR1” value at TAAR1 was “abolished phenethylamine-induced changes in 5-HT production, GI transit, and secretion”. Further, the “5-HT production in human colonic tissues” value with human colonic tissues is “significantly enhanced 5-HT production”. In the series with PKA and CaMKII, the “phosphorylation of PKA and CaMKII” value is “an increase in the phosphorylation of these proteins”. Also, the “circulating 5-HTP levels” value with 5-HT production (mice, 2, 5 and 10 mg/kg, FIG. 11A-C) was “increase in circulating 5-HTP levels in mice in a dose-dependent manner”. Moreover, the GI transit entry in the series on 5-HT production is listed as “accelerated GI transit”. In the series on 5-HT production, the fecal water content result is “increased fecal water content”. In addition, in the series with 5-HT production, the “serum and intestinal 5-HT levels” value is “significantly elevated serum and intestinal 5-HT levels”. Besides, the 5-HIAA/5-HT ratio entry in the series on 5-HT production (setting [2]) was “but not the 5-HIAA/5-HT ratio, were increased”. In the series with 5-HT production (setting [2]), the 5-HT/5-HTP ratio entry is on record as “increased”. The 5-HTP/Trp ratio entry in the series on 5-HT production (setting [2]) is on record as “increased”.

For the compound `CCCCN1CCC(CNC(=O)c2c3n(c4ccccc24)CCCO3)CC1` [Piboserod], on 5-HTR4, the “5-HT levels stimulated by phenethylamine or tryptamine” value is recorded as “did not restore 5-HT levels” and the “tryptamine-stimulated 5-HT production” value is “modest reduction of tryptamine-stimulated 5-HT production”.

Turning to `O=C(O)Cc1ccccc1` [phenylacetic acid], the “5-HT levels in QGP-1 cells” value with QGP-1 cells is reported as “did not change the 5-HT levels”.
